Results from the supplement of paper PMC10307832.

Assays:
Experiment in all cases: relative viability (nuclei count vs DMSO), 5 days (fraction); higher = more cells survive
TGX 221 + Pemetrexed = compound: CC1=CN2C(=O)C=C(N=C2C(=C1)C(C)NC3=CC=CC=C3)N4CCOCC4 [TGX 221] + Nc1nc2[nH]cc(CCc3ccc(C(=O)N[C@@H](CCC(=O)O)C(=O)O)cc3)c2c(=O)[nH]1 [Pemetrexed] (partner 0.2 µM)
Outline: (§1)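 For relative viability, nuclei counts in treated wells were divided by those in vehicle wells. Lung cancer cell lines had been pin-tool dosed in 1536-well plates the day after seeding and cultured for 5 days, then fixed and stained in one step (final 0.05% Triton X-100, 1% formaldehyde, 1 ug/ml Hoechst) and imaged at 4×. Doses were one drug alone or a fixed anchor-drug dose plus five library-drug doses (not always all listed) in √10 steps, and values are duplicate-plate medians.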

[1] = compound: C1=CC=C(C(=C1)C2=CC=C(C=C2)C3=CSC4=C3C(=C(C(=O)N4)C#N)O)O + Cc1nc(NC(=O)N2CCC[C@H]2C(N)=O)sc1-c1ccnc(C(C)(C)C(F)(F)F)c1 [Alpelisib] (partner 2 µM)
Outline: as §1

[2] = compound: C1=CC=C(C(=C1)C2=CC=C(C=C2)C3=CSC4=C3C(=C(C(=O)N4)C#N)O)O + Cc1nc(Nc2ncc(C(=O)Nc3c(C)cccc3Cl)s2)cc(N2CCN(CCO)CC2)n1 [Dasatinib] (partner 0.075 µM)
Outline: as §1

TGX 221 + OSI-027 = compound: CC1=CN2C(=O)C=C(N=C2C(=C1)C(C)NC3=CC=CC=C3)N4CCOCC4 [TGX 221] + COc1cccc2cc(-c3nc([C@H]4CC[C@H](C(=O)O)CC4)n4ncnc(N)c34)[nH]c12 [OSI-027] (partner 0.5 µM)
Outline: as §1

Row | Cell Line | relative viability (TGX 221 + Pemetrexed; first compound 0.08 µM) | relative viability (TGX 221 + Pemetrexed; first compound 0.253 µM) | relative viability (TGX 221 + Pemetrexed; first compound 0.8 µM) | relative viability (TGX 221 + Pemetrexed; first compound 2.53 µM) | relative viability (TGX 221 + Pemetrexed; first compound 8 µM) | relative viability ([1]; first compound 0.08 µM) | relative viability ([1]; first compound 0.253 µM) | relative viability ([1]; first compound 0.8 µM) | relative viability ([1]; first compound 2.53 µM) | relative viability ([1]; first compound 8 µM) | relative viability ([2]; first compound 0.08 µM) | relative viability ([2]; first compound 0.253 µM) | relative viability ([2]; first compound 0.8 µM) | relative viability ([2]; first compound 2.53 µM) | relative viability ([2]; first compound 8 µM) | relative viability (TGX 221 + OSI-027; first compound 0.08 µM) | relative viability (TGX 221 + OSI-027; first compound 0.253 µM) | relative viability (TGX 221 + OSI-027; first compound 0.8 µM) | relative viability (TGX 221 + OSI-027; first compound 2.53 µM) | relative viability (TGX 221 + OSI-027; first compound 8 µM)
1 | HCC-366 | 0.158 | 0.146 | 0.184 | 0.165 | 0.16 | 0.506 | 0.491 | 0.431 | 0.441 | 0.367 | 0.505 | 0.844 | 0.64 | 0.737 | 0.353 | 0.865 | 0.832 | 0.922 | 0.567 | 0.755
2 | HCC-827 | 0.264 | 0.294 | 0.272 | 0.248 | 0.249 | 1.09 | 1.01 | 0.993 | 1.06 | 1.06 | 0.315 | 0.469 | 0.313 | 0.403 | 0.224 | 0.735 | 0.761 | 0.799 | 0.727 | 0.78
3 | HOP-62 | 0.315 | 0.279 | 0.289 | 0.438 | 0.376 | 0.905 | 0.774 | 0.709 | 1.05 | 0.573 | 0.528 | 0.573 | 0.685 | 0.67 | 0.501 | 0.787 | 0.812 | 0.788 | 0.807 | 0.835
4 | IA-LM | – | – | – | – | – | 0.549 | 0.879 | 0.626 | 0.75 | 0.374 | – | – | – | – | – | – | – | – | – | –
5 | LC-2-ad | 0.272 | 0.282 | 0.287 | 0.259 | 0.265 | 0.803 | 0.943 | 1 | 1 | 0.965 | 0.367 | 0.545 | 0.426 | 0.694 | 0.475 | 0.745 | 0.759 | 0.931 | 0.846 | 0.804
6 | LCLC-97TM1 | 0.167 | 0.169 | 0.173 | 0.197 | 0.179 | 0.251 | 0.346 | 0.265 | 0.225 | 0.173 | 0.767 | 0.979 | 0.98 | 0.936 | 0.806 | 0.357 | 0.466 | 0.494 | 0.485 | 0.546
7 | LCLC-103H | 0.441 | 0.481 | 0.451 | 0.455 | 0.5 | 0.948 | 0.881 | 1.05 | 0.981 | 0.869 | 0.33 | 0.415 | 0.458 | 0.463 | 0.404 | 0.425 | 0.453 | 0.438 | 0.394 | 0.411
8 | LK-2 | 0.232 | 0.279 | 0.219 | 0.275 | 0.247 | – | – | 0.906 | 1 | 1.06 | – | 0.269 | 0.276 | 0.28 | 0.253 | 0.212 | 0.246 | 0.216 | 0.225 | 0.237
9 | LOU-NH91 | 0.446 | 0.409 | 0.341 | 0.446 | 0.367 | 0.678 | 0.789 | 0.721 | 0.663 | 0.67 | 0.493 | 0.589 | 0.506 | 0.542 | 0.489 | 0.711 | 0.72 | 0.727 | 0.745 | 0.701
